Experimental data as given in patent US6156700A, “3-(1,2-Benzisothiazol- and isoxazol-5-yl)-2,4(1H,3H)-pyrimidinedione or thione and 3-(1,2-benzisothiazol- and isoxazol-5-yl)-4(3H)-pyrimidinone or thione herbicidal agents” (American Cyanmid Company, priority 1998, dated 2000).

Experiments:
Details in all cases: 0.0630 kg/ha
[1] = tested on: Wheat, Winter, cv Riband, Triticum aestivum; assay: Postemergence herbicidal evaluation, TRZAWR; type: in vivo
Method: (§1) In the tests, seedling plants are grown in jiffy flats for about two weeks. The test compounds are dispersed in 50/50 acetone/water mixtures containing 0.5% TWEEN®20, a polyoxyethylene sorbitan monolaurate surfactant of Atlas Chemical Industries, in sufficient quantities to provide the equivalent of about 0.0157 kg to 0.500 kg per hectare of active compound when applied to the plants through a spray nozzle operating at 40 psi for a predetermined time. After spraying, the plants are placed on greenhouse benches and are cared for in accordance with conventional greenhouse procedures. From four to five weeks after treatment, the seedling plants are examined and rated according to the rating system set forth below. Where more than one test is involved for a given compound, the data are averaged.
(§2) Results of herbicide evaluation are expressed on a rating scale (0-9). The scale is based upon a visual observation of plant stand, vigor, malformation, size, chlorosis and overall plant appearance as compared with a control.

[2] = tested on: Lambsquarters, Common, Chenopodium album; assay: Postemergence herbicidal evaluation, CHEAL; type: in vivo, L.
Method: as §1, §2

Corn, Field, Zea mays = assay: Postemergence herbicidal evaluation, ZEAMX; type: in vivo, L.
Method: as §1, §2

Galium, Galium aparine = assay: Postemergence herbicidal evaluation, GALAP; type: in vivo
Method: as §1, §2

[3] = tested on: Foxtail, Green, Setaria viridis; assay: Postemergence herbicidal evaluation, SETVI; type: in vivo, (L.) Beau
Method: as §1, §2

[4] = tested on: Morningglory, Ivyleaf, Ipomoea hederacea; assay: Postemergence herbicidal evaluation, IPOHE; type: in vivo, (L.) Jacq.
Method: as §1, §2

[5] = tested on: Soybean, Williams, Glycine max; assay: Postemergence herbicidal evaluation, GLXMAW; type: in vivo, (L.) Merr. cv Williams
Method: as §1, §2

[6] = tested on: Ragweed, Common, Ambrosia artemisifolia; assay: Postemergence herbicidal evaluation, AMBEL; type: in vivo, L.
Method: as §1, §2

[7] = tested on: Sicklepod, Cassia obtusifolia; assay: Postemergence herbicidal evaluation, CASOB; type: in vivo, L.
Method: as §1, §2

[8] = tested on: Velvetleaf, Abutilon theophrasti; assay: Postemergence herbicidal evaluation, ABUTH; type: in vivo, Medic.
Method: as §1, §2

[9] = tested on: Barnyardgrass, Echinochloa crus-galli; assay: Postemergence herbicidal evaluation, ECHCG; type: in vivo, (L.) Beau
Method: as §1, §2

[10] = tested on: Rice, Tebonnet, Oryza sativa; assay: Postemergence herbicidal evaluation, ORYSAT; type: in vivo, (L.) Tebonnet
Method: as §1, §2

| Structure (SMILES) | herbicide rating (0-9) [1] | herbicide rating (0-9) [2] | herbicide rating (0-9) (Corn, Field, Zea mays) | herbicide rating (0-9) (Galium, Galium aparine) | herbicide rating (0-9) [3] | herbicide rating (0-9) [4] | herbicide rating (0-9) [5] | herbicide rating (0-9) [6] | herbicide rating (0-9) [7] | herbicide rating (0-9) [8] | herbicide rating (0-9) [9] | herbicide rating (0-9) [10] |
| --- | --- | --- | --- | --- | --- | --- | --- | --- | --- | --- | --- | --- |
| Cc1ccc(OCC(=O)OC(C)(C)C)c(-c2nsc3ccc(-n4c(=O)cc(C(F)(F)F)n(C)c4=O)cc23)c1 [Compound 68, tert-Butyl {{2-{5-[3,6-dihydro-3-methyl-2,6-dioxo-4-(trifluoromethyl)-1(2H)-pyrimidinyl]-1,2-benzisothiazol-3-yl}-p-tolyl}oxy}acetate] | 3.5 | 9.0 | 5.0 | 2.0 | 9.0 | 9.0 | 5.5 | 5.0 | 9.0 | 6.0 | 5.0 | 2.0 |
| Cc1ccc(OC(C)C(=O)OC(C)C)c(-c2nsc3ccc(-n4c(=O)cc(C(F)(F)F)n(C)c4=O)cc23)c1 (stereo not drawn) [Compound 82, Isopropyl 2-{{2-{5-[3,6-dihydro-3-methyl-2,6-dioxo-4-(trifluoromethyl)-1(2H)-pyrimidinyl)-1,2-benzisothiazol-3-yl}-p-tolyl}oxy}propionate] | 6.0 | 9.0 | 5.5 | 4.0 | 9.0 | 9.0 | 5.5 | 6.0 | 1.0 | 9.0 | 7.0 | 5.5 |
| COc1cc(C)c(C)c(C)c1-c1nsc2ccc(-n3c(=O)cc(C(F)(F)F)n(C)c3=O)cc12 [Compound 34, 3-[3-(6-Methoxy-2,3,4-trimethylphenyl)-1,2-benzisothiazol-5-yl]-1-methyl-6-(trifluoromethyl)-2,4(1H,3H)-pyrimidinedione] | 0.0 | 4.0 | 4.0 | 0.0 | 7.0 | 0.0 | 3.0 | 1.0 | 0.0 | 0.0 | 1.0 | 0.0 |
| Cc1ccc(OC(C)C(=O)OCc2ccco2)c(-c2nsc3ccc(-n4c(=O)cc(C(F)(F)F)n(C)c4=O)cc23)c1 (stereo not drawn) [Compound 79, Furfuryl 2-{{2-{5-[3,6-dihydro-3-methyl-2,6-dioxo-4-(trifluoromethyl)-1(2H)-pyrimidinyl]-1,2-benzisothiazol-3-yl}-p-tolyl}oxy}propionate] | 8.5 | 9.0 | 7.5 | 9.0 | 9.0 | 9.0 | 7.5 | 9.0 | 7.0 | 9.0 | 9.0 | 7.5 |
| Cc1ccc(OCC(=O)n2cnc3ccccc32)c(-c2nsc3ccc(-n4c(=O)cc(C(F)(F)F)n(C)c4=O)cc23)c1 [Compound 62] | 5.5 | 9.0 | 7.0 | 6.0 | 9.0 | 9.0 | 9.0 | 9.0 | 7.0 | 9.0 | 9.0 | 5.5 |
| C#CC(C)OC(=O)COc1ccc(C)cc1-c1nsc2ccc(-n3c(=O)cc(C(F)(F)F)n(C)c3=O)cc12 (stereo not drawn) [Compound 74, 1-Methyl-2-propynyl {{2-{5-[3,6-dihydro-3-methyl-2,6-dioxo-4-(trifluoromethyl)-1(2H)-pyrimidinyl]-1,2-benzisothiazol-3-yl}-p-tolyl}oxy}acetate] | 7.5 | 9.0 | 8.5 | 9.0 | 9.0 | 9.0 | 9.0 | 9.0 | 9.0 | 9.0 | 9.0 | 7.0 |
| Cn1c(C(F)(F)F)cc(=O)n(-c2ccc3snc(Br)c3c2)c1=O [Compound 36, 3-(3-Bromo-1,2-benzisothiazol-5-yl)-1-methyl-6-(trifluoromethyl)-2,4(1H,3H)-pyrimidinedione] | 0.5 | 0.0 | 1.5 | 0.0 | 9.0 | 1.0 | 0.0 | 0.0 | 0.0 | 0.0 | 1.0 | 0.5 |
| Cc1ccc(OC(C)C(=O)OCCCl)c(-c2nsc3ccc(-n4c(=O)cc(C(F)(F)F)n(C)c4=O)cc23)c1 (stereo not drawn) [Compound 81, 2-Chloroethyl 2-{{2-{5-[3,6-dihydro-3-methyl-2,6-dioxo-4-(trifluoromethyl)-1(2H)-pyrimidinyl]-1,2-benzisothiazol-3-yl}-p-tolyl}oxy}propionate] | 8.5 | 9.0 | 8.0 | 9.0 | 9.0 | 9.0 | 7.0 | 9.0 | 3.0 | 9.0 | 9.0 | 8.0 |
| CC#CCOC(=O)COc1ccc(C)cc1-c1nsc2ccc(-n3c(=O)cc(C(F)(F)F)n(C)c3=O)cc12 [Compound 75] | 9.0 | 9.0 | 7.5 | 7.0 | 9.0 | 9.0 | 9.0 | 9.0 | 7.0 | 9.0 | 9.0 | 6.5 |
| CCC(CC)OC(=O)COc1ccc(C)cc1-c1nsc2ccc(-n3c(=O)cc(C(F)(F)F)n(C)c3=O)cc12 [Compound 83, 1-Ethylpropyl {{2-{5-[3,6-dihydro-3-methyl-2,6-dioxo-4-(trifluoromethyl)-1(2H)-pyrimidinyl)-1,2-benzisothiazol-3-yl}-p-tolyl}oxy}acetate] | 6.5 | 9.0 | 6.0 | 7.0 | 9.0 | 9.0 | 8.0 | 9.0 | 3.0 | 9.0 | 9.0 | 7.5 |
